In US11345711B2, “8,9-dihydroimidazo[1,2-a]pyrimido[5,4-e]pyrimidin-5(6H)-ones” (IMPACT THERAPEUTICS (SHANGHAI), INC, priority 2016, dated 2022):
Read-outs that look alike come from different tables or passages of the source.

How the values were obtained:
NCI-H1299 cells = assay: MTT based cell viability assay on NCI-H1299 cells; conditions: Homo sapiens, read-out: IC50, growth inhibition of NCI-H1299 cells
Outline: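 NCI-H1299 cells (1000/well, settled overnight) were exposed for 3 d at 37 °C, 5% CO2, to an eight-point series of 10 μM to 0.01 μM plus DMSO blank, as prepared in DMSO (final DMSO 1‰). MTT (0.5 mg/mL, 4 h) was read at 552/630/690 nm. IC50 came from sigmoidal dose-response fits of survival.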

LoVo cells = assay: MTT based cell viability assay on LoVo cells; conditions: Homo sapiens, LoVo, 72 h, 3 d, read-out: IC50, growth inhibition of LoVo cells
Outline: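 Inhibition of LoVo proliferation was derived as IC50 from a sigmoidal dose-response fit of cell survival. Readout was MTT (0.5 mg/mL, 4 h) with absorbance at 552/630/690 nm, after 3-day treatment at 37 °C. Eight-point series from 10 μM to 0.01 μM, DMSO control, 1% DMSO final.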

Wee1 (h) = Wee1 (h) (Homo sapiens, UniProt P30291); assay: Wee1 kinase (h) detection method, [γ-33P]-ATP filter assay; format: biochemical
Wee1 (h), sequence (P30291 whole entry): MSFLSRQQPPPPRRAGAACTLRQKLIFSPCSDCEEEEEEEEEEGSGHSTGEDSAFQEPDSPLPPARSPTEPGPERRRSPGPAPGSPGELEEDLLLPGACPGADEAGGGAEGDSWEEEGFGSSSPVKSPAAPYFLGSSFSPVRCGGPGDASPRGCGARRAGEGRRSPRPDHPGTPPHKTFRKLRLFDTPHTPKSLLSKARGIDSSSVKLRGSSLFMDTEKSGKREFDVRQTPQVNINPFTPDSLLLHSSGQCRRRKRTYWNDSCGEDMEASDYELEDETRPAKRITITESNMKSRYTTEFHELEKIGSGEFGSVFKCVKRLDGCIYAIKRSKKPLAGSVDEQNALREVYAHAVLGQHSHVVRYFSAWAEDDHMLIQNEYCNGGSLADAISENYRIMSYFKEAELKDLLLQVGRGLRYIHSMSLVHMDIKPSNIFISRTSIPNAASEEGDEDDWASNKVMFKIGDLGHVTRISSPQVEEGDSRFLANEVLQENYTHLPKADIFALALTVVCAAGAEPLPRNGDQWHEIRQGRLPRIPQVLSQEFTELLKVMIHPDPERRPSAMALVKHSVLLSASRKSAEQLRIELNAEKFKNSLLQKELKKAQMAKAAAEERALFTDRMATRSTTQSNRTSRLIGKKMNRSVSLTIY

Row | SMILES | IC50 (NCI-H1299 cells; NCI-H1299 cells) | IC50 (LoVo cells) | Inh. (%) of Wee1 kinase enzyme activity (Wee1 (h); C 1 μm compound) | Inh. (%) of Wee1 kinase enzyme activity (Wee1 (h); C 0.01 μm compound) | Inh. (%) of Wee1 kinase enzyme activity (Wee1 (h); C 0.1 μm compound) | IC50 (NCI-H1299 cells; NCI-H1299, NCI-H1299 cells) | inhibition at 0.01 µM (Wee1 (h); at 0.01 μM, read-out: inhibitory rate on Wee1 enzyme activity)
1 | CN(C)CCCNc1ccc(Nc2ncc3c(n2)N2CCN=C2N(c2c(F)cccc2Cl)C3=O)cc1 [Example 110, 6-(2-Chloro-6-fluorophenyl)-2-((4-((3-(dimethylamino)propyl)amino)phenyl)amino)-8,9-dihydroimidazo[1,2-a]pyrimido[5,4-e]pyrimidin-5(6H)-one] | 599 nM | 472 nM | 96% |  |  |  | 
2 | C[C@@H]1CN(c2ccc(Nc3ncc4c(n3)N3CCN=C3N(c3c(Cl)cccc3Cl)C4=O)cc2)C[C@H](C)N1C [Example 64, 6-(2,6-Dichlorophenyl)-2-((4-((3S,5R)-3,4,5-trimethylpiperazin-1-yl)phenyl)amino)-8,9-dihydroimidazo[1,2-a]pyrimido[5,4-e]pyrimidin-5(6H)-one] | 177 nM | 96.5 nM | 100% | 52% | 88% |  | 
3 | COc1cc(Nc2ncc3c(n2)N2CCN=C2N(c2c(Cl)cccc2Cl)C3=O)cc(Br)c1N1CCN(C)CC1 [Example 157, 6-(2,6-Dichlorophenyl)-2-((3-bromo-5-methoxy-4-(4-methylpiperazin-1-yl)phenyl)amino)-8,9-dihydroimidazo[1,2-a]pyrimido[5,4-e]pyrimidin-5(6H)-one] | 222 nM | 38.6 nM | 91% |  |  |  | 
4 | CN1CCN(c2ccc(Nc3ncc4c(n3)N3CCN=C3N(c3c(F)cccc3Cl)C4=O)c(C(F)(F)F)c2)CC1 [Example 40, 6-(2-Chloro-6-fluorophenyl)-2-((4-(4-methylpiperazin-1-yl)-2-(trifluoromethyl)phenyl)amino)-8,9-dihydroimidazo[1,2-a]pyrimido[5,4-e]pyrimidin-5(6H)-one] | > 10000 nM | > 100000 nM | 4% |  |  |  | 
5 | O=C1c2cnc(Nc3ccc(CN4CCOCC4)cc3)nc2N2CCN=C2N1c1c(F)cccc1Cl [Example 33, 6-(2-Chloro-6-fluorophenyl)-2-((4-(morpholinomethyl)phenyl)amino)-8,9-dihydroimidazo[1,2-a]pyrimido[5,4-e]pyrimidin-5(6H)-one] | > 10000 nM | > 100000 nM | 87% |  |  |  | 
6 | C[C@@H]1CN(c2c(Cl)cc(Nc3ncc4c(n3)N3CCN=C3N(c3c(Cl)cccc3Cl)C4=O)cc2Cl)C[C@H](C)N1C [Example 136, 6-(2,6-Dichlorophenyl)-2-((3,5-dichloro-4-((3S,5R)-3,4,5-trimethylpiperazin-1-yl)phenyl)amino)-8,9-dihydroimidazo[1,2-a]pyrimido[5,4-e]pyrimidin-5(6H)-one] |  | 214 nM | 94% | 36% | 75% | 310 nM | 
7 | CN(C)C1CCN(c2ccc(Nc3ncc4c(n3)N3CCN=C3N(c3c(F)cccc3Cl)C4=O)cc2F)CC1 [Example 116, 6-(2-Chloro-6-fluorophenyl)-2-((4-(4-(dimethylamino)piperidin-1-yl)-3-fluorophenyl)amino)-8,9-dihydroimidazo[1,2-a]pyrimido[5,4-e]pyrimidin-5(6H)-one] |  | 123 nM | 98% | 19% | 77% | 265 nM | 
8 | C[C@@H]1CN(c2ccc(Nc3ncc4c(n3)N3CCN=C3N(c3c(F)cccc3Cl)C4=O)cc2)C[C@H](C)O1 [Example 32, 6-(2-Chloro-6-fluorophenyl)-2-((4-((2S,6R)-2,6-dimethylmorpholino)phenyl)amino)-8,9-dihydroimidazo[1,2-a]pyrimido[5,4-e]pyrimidin-5(6H)-one] | > 10000 nM | 836 nM | 94% | 19% | 69% |  | 
9 | CN1CCN(c2ccc(Nc3ncc4c(n3)N3CCN=C3NC4=O)cc2)CC1 [Example 93, 2-((4-(4-Methylpiperazin-1-yl)phenyl)amino)-8,9-dihydroimidazo[1,2-a]pyrimido[5,4-e]pyrimidin-5(6H)-one] | > 10000 nM | > 100000 nM | 0% |  |  |  | 
10 | CN1CCN(c2ccc(Nc3ncc4c(n3)N3C(=NCC3(C)C)N(c3c(F)cccc3Cl)C4=O)cc2)CC1 [Example 28, 6-(2-Chloro-6-fluorophenyl)-9,9-dimethyl-2-((4-(4-methylpiperazin-1-yl)phenyl)amino)-8,9-dihydroimidazo[1,2-a]pyrimido[5,4-e]pyrimidin-5(6H)-one] | > 3000 nM | > 1000 nM | 67% |  |  |  | 
11 | CN1CCN(c2ccc(Nc3ncc4c(n3)N3CCN=C3N(c3c(F)cccc3Cl)C4=O)cn2)CC1 [Example 57, 6-(2-Chloro-6-fluorophenyl)-2-((6-(4-methylpiperazin-1-yl)pyridin-3-yl)amino)-8,9-dihydroimidazo[1,2-a]pyrimido[5,4-e]pyrimidin-5(6H)-one] | > 10000 nM | 13600 nM | 89% | 36% | 80% |  | 
12 | Cc1cccc(C)c1N1C(=O)c2cnc(Nc3ccc4c(c3)CN(C)CC43CC3)nc2N2CCN=C21 [Example 17, 6-(2,6-Dimethylphenyl)-2-((2′-methyl-2′,3′-dihydro-1′H-spiro[cyclopropane-1,4′-isoquinolin]-7′-yl)amino)-8,9-dihydroimidazo[1,2-a]pyrimido[5,4-e]pyrimidin-5(6H)-one] | 447 nM | 290 nM | 87% |  |  |  | 
13 | CN1CCc2c(Cl)cc(Nc3ncc4c(n3)N3CCN=C3N(c3c(Cl)cccc3Cl)C4=O)cc2C1 [Example 130, 6-(2,6-Dichlorophenyl)-2-((5-chloro-2-methyl-1,2,3,4-tetrahydroisoquinolin-7-yl)amino)-8,9-dihydroimidazo[1,2-a]pyrimido[5,4-e]pyrimidin-5(6H)-one] | 243 nM | 624 nM | 93% |  |  |  | 
14 | O=C1c2cnc(Nc3ccc(N4CCNCC4)c(CO)c3)nc2N2CCN=C2N1c1c(F)cccc1Cl [Example 179, 6-(2-Chloro-6-fluorophenyl)-2-((3-(hydroxymethyl)-4-(piperazin-1-yl)phenyl)amino)-8,9-dihydroimidazo[1,2-a]pyrimido[5,4-e]pyrimidin-5(6H)-one] | 70600 nM | 2860 nM | 95% |  |  |  | 
15 | CN1CCN(c2ccc(Nc3ncc4c(n3)N3CCN=C3N(c3c(Cl)cccc3Cl)C4=O)cc2)CC1 [Example 4, 6-(2,6-Dichlorophenyl)-2-((4-(4-methylpiperazin-1-yl)phenyl)amino)-8,9-dihydroimidazo[1,2-a]pyrimido[5,4-e]pyrimidin-5(6H)-one] |  | 169 nM | 97% | 55% | 93% | 204 nM | 51%
16 | CN(C)C1CCN(c2ccc(Nc3ncc4c(n3)N3CCN=C3N(c3c(F)cccc3Cl)C4=O)cc2)CC1 [Example 115, 6-(2-Chloro-6-fluorophenyl)-2-((4-(4-(dimethylamino)piperidin-1-yl)phenyl)amino)-8,9-dihydroimidazo[1,2-a]pyrimido[5,4-e]pyrimidin-5(6H)-one] |  | 265 nM | 96% | 34% | 81% | 381 nM | 
